Results on six compounds are retold here after ChEMBL document CHEMBL1126349, “Synthesis and biological properties of 1069C: a new synthetic antitumour agent with very low cross-resistance potential” (Bioorg Med Chem Lett, 1992).

Test [1] has as its system P388. Description: Compound was tested for % increase in life span of P388 tumor. Type of test: functional, Mus musculus.
The subject of test [2] is P388. Description: Compound was tested for % increase in life span of adriamycin resistant P388 tumor. The format is functional, Mus musculus.
The subject of test [3] is P388. Description: Compound was tested for % increase in life span of vincristine resistant P388 tumor. Type of test: functional, Mus musculus.
The subject of test [4] is P388. Description: The compound was evaluated in vitro for the P388 cell spindle disruption.; 0.006-0.009. Type of test: functional, cell-based. The note with it: Mus musculus.
The target in test [5] is T1, Tubulin alpha chain (Sus scrofa, UniProt P02550). Description: Compound was tested for competitive inhibition with radioligand [3H]colchicine at colchicine site of mammalian tubulin.
Test [6] has as its target Tubulin alpha chain (Sus scrofa) (UniProt P02550). Description: Compound was tested for competitive inhibition with radioligand [3H]colchicine or [3H]vinblastine at alkaloid site on mammalian tubulin; No effect.
In test [7] the test system is P388. Description: The compound was evaluated in vitro for the inhibition of murine leukemia P388D1 cell proliferation. The note with it: Mus musculus. Type of test: functional, cell-based.
Test [8] concerns P388. Description: The compound was evaluated in vitro for the inhibition of P388D1 cell colony formation. The format is functional, cell-based. The note with it: Mus musculus.
The target of test [9] is T1, Tubulin alpha chain. Description: In vitro mammalian brain tubulin polymerization using standard assay. The format is functional.
Test [10] deals with P388. Description: The compound was evaluated in vitro for the P388 cell spindle disruption.; 0.02-0.04. Type of test: functional, cell-based. The note with it: Mus musculus.
The target in test [11] is T1, Tubulin alpha chain. Description: The compound was evaluated in vitro for the mammalian brain tubulin polymerization using standard assay. The format is functional.

Several values for one entry are separate records, joined by “and”; a condition that tells them apart may be missing. Equal values may be shown once. Activity calls are given as the source filed them. No cut-off for these calls is given here.

T1 sequence (P02550 whole entry, looked up): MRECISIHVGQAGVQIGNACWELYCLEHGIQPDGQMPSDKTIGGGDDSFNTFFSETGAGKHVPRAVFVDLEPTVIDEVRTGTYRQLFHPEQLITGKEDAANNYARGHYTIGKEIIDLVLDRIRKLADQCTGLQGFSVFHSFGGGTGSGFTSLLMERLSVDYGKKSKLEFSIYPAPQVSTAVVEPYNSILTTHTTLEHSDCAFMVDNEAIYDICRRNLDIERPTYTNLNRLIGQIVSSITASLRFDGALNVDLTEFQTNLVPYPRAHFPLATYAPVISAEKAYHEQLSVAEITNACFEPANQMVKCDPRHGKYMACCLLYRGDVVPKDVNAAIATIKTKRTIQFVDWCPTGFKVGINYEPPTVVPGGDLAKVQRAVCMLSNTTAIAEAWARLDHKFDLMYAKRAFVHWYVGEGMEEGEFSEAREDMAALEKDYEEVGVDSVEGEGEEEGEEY
Tubulin alpha chain (Sus scrofa), sequence (P02550 whole entry, looked up): as above

Usually ILS stands for the gain in survival time of treated over control animals, in per cent. Read a low ILS as little gain in survival. By EC50 is commonly meant the concentration giving half of the maximal effect. A higher EC50 goes with a less potent agent. One may read the Ki as the dissociation constant of the complex between target and ligand, obtained from inhibition or displacement. A high value points to a looser hold on the target. The term IC50 denotes the midpoint of a concentration-inhibition curve. Regarding `COC(=O)Nc1cn2nc(OCc3cc(OC)c(OC)c(OC)c3)ccc2n1`, the ILS was ~147% and ~120% with P388 [1]; roughly 110% with P388 [2]; roughly 170% in the test with P388 [3]. This compound registered an EC50 in the test with P388 [4] of 6 nM. Also, the Ki on Tubulin alpha chain [5] was 750 nM. Moreover, the result in test [6] was inactive. The IC50 in the test with P388 [7] was 8.9 nM; with P388 [8], 13 nM; at Tubulin alpha chain [9] it was 310 nM.
In the case of `COc1cc2c(c(OC)c1OC)-c1ccc(OC)c(=O)cc1[C@@H](NC(C)=O)CC2` [COLCHICINE], the ILS with P388 [1] was roughly 85%; in the test on P388 [3] it was roughly 75%. Further, the 50% inhibitory concentration (IC50) in the test with P388 [7] is 0.62 nM; with P388 [8] it was 71 nM.
`COc1cccc2c1C(=O)c1c(O)c3c(c(O)c1C2=O)C[C@@](O)(C(=O)CO)C[C@@H]3O[C@H]1C[C@H](N)[C@H](O)[C@H](C)O1` [DOXORUBICIN]: the results for the ILS in the test with P388 [1] and in the test on P388 [2] were roughly 120% and roughly 25%, respectively.
For `COc1cc([C@@H]2c3cc4c(cc3[C@@H](O[C@@H]3O[C@@H]5CO[C@@H](C)O[C@H]5[C@H](O)[C@H]3O)[C@H]3COC(=O)[C@H]23)OCO4)cc(OC)c1O` [ETOPOSIDE], in that order: roughly 80% and roughly 20%.
Regarding `CC[C@]1(O)C[C@@H]2CN(CCc3c([nH]c4ccccc34)[C@@](C(=O)OC)(c3cc4c(cc3OC)N(C)[C@H]3[C@@](O)(C(=O)OC)[C@H](OC(C)=O)[C@]5(CC)C=CCN6CC[C@]43[C@@H]65)C2)C1` [VINBLASTINE], the ILS was roughly 100% in the test on P388 [1] and roughly 50% in the test with P388 [3]. The 50% inhibitory concentration (IC50) in the test on P388 [7] amounted to 1.7 nM; in the test on P388 [8], 8.2 nM.
As for `CC[C@]1(O)C[C@H]2CN(CCc3c([nH]c4ccccc34)[C@@](C(=O)OC)(c3cc4c(cc3OC)N(C=O)[C@H]3[C@@](O)(C(=O)OC)[C@H](OC(C)=O)[C@]5(CC)C=CCN6CC[C@]43[C@@H]65)C2)C1` [VINCRISTINE], the values for the increase in life span (ILS) in the test on P388 [1], in the test with P388 [2] and with P388 [3] were roughly 130%, roughly 5% and roughly 10%, respectively. Moreover, the EC50 in the test on P388 [10] is 20 nM. Also, the concentration for half-maximal inhibition (IC50) at Tubulin alpha chain [11] turned out to be 220 nM; with P388 [7], 4.7 nM; in the test with P388 [8] it was 190 nM.
